Measured values reported in patent publication US9598446B2, “Amino compounds for treatment of complement mediated disorders” (priority 2014, dated 2017).

Molecular target: Human factor D (Homo sapiens (Human), UniProt P00746)
Experiment: Human Factor D Assay
Assay type: biochemical
Conditions: not given

Sequence of Human factor D (P00746 26-253): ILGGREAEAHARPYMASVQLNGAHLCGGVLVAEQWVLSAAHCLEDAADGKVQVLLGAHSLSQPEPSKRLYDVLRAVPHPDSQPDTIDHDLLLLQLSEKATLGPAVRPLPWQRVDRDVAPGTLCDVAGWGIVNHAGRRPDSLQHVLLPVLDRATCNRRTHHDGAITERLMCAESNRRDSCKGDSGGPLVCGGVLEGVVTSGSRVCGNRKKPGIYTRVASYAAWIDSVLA

**Q.** How did the IC50 turn out when `CC(=O)c1cn(CC(=O)N2C[C@H](F)C[C@H]2C(=O)Nc2ccccc2-n2nccc2C)c2ccc(Nc3cncnc3)cc12` [Compound 30, (2S,4R)-1-(2-(3-acetyl-5-(pyrimidin-5-ylamino)-1H-indol-1-yl)acetyl)-4-fluoro-N-(2-(5-methyl-1H-pyrazol-1-yl)phenyl)pyrrolidine-2-carboxamide] was run?
**A.** 1000 to 10000 nM

**Q.** Which IC50 does the source give for `CC(=O)c1cn(CC(=O)N2C[C@H](F)C[C@H]2C(=O)N[C@H]2CCCC[C@@H]2O)c2ccc(Nc3cncnc3)cc12` [Compound 36, (2S,4R)-1-(2-(3-acetyl-5-(pyrimidin-5-ylamino)-1H-indol-1-yl)acetyl)-4-fluoro-N-((1S,2S)-2-hydroxycyclohexyl)pyr-rolidine-2-carboxamide] here?
**A.** 1000 to 10000 nM

**Q.** For `CC(=O)c1cn(CC(=O)N2C[C@H](F)C[C@H]2C(=O)Nc2ccccc2N2CCOC2=O)c2ccc(Nc3cncnc3)cc12` [Compound 40, (2S,4R)-1-(2-(3-acetyl-5-(pyrimidin-5-ylamino)-1H-indol-1-yl)acetyl)-4-fluoro-N-(2-(2-oxooxazolidin-3-yl)phenyl)pyrrolidine-2-carboxamide], which IC50 is on record?
**A.** 1000 to 10000 nM

**Q.** For `CC(=O)c1cn(CC(=O)N2C[C@H](F)C[C@H]2C(=O)NC2CCc3c(F)ccc(F)c32)c2ccc(Nc3cncnc3)cc12` (stereo partly drawn) [Compound 51, (2S,4R)-1-(2-(3-acetyl-5-(pyrimidin-5-ylamino)-1H-indol-1-yl)acetyl)-N-(4,7-difluoro-2,3-dihydro-1H-inden-1-yl)-4-fluoropyrrolidine-2-carboxamide], which IC50 is on record?
**A.** 1000 to 10000 nM

**Q.** With `COc1cc(C)cc2c1OCCC2NC(=O)[C@@H]1C[C@@H](F)CN1C(=O)Cn1cc(C(C)=O)c2cc(Nc3cncnc3)ccc21` (stereo partly drawn) [Compound 54, (2S,4R)-1-(2-(3-acetyl-5-(pyrimidin-5-ylamino)-1H-indol-1-yl)acetyl)-4-fluoro-N-(8-methoxy-6-methylchroman-4-yl)pyrrolidine-2-carboxamide] as the compound, how does the IC50 read?
**A.** 1000 to 10000 nM

**Q.** Which IC50 does the source give for `CNC(=O)[C@@H]1C[C@@H](F)CN1C(=O)Cn1cc(C(C)=O)c2cc(Nc3cncnc3)ccc21` [Compound 20, (2S,4R)-1-(2-(3-acetyl-5-(pyrimidin-5-ylamino)-1H-indol-1-yl)acetyl)-4-fluoro-N-methylpyrrolidine-2-carboxamide] here?
**A.** 1000 to 10000 nM

Same assay, conditions: human factor D 80 nM, substrate Z-L-Lys-SBz1 and DTNB 100 μM each, pH 7.5; read-out: IC50

**Q.** How did the IC50 turn out when `CC(=O)c1cn(CC(=O)N2C[C@H](F)C[C@H]2C(=O)NCc2ccccn2)c2ccc(Nc3cncnc3)cc12` [Compound 17, (2S,4R)-1-(2-(3-acetyl-5-(pyrimidin-5-ylamino)-1H-indol-1-yl)acetyl)-4-fluoro-N-(pyridin-2-ylmethyl)pyrrolidine-2-carboxamide] was run?
**A.** < 1000 nM

**Q.** With `CC(=O)c1cn(CC(=O)N2C[C@H](F)C[C@H]2C(=O)Nc2cc3c(cc2F)OC(F)(F)O3)c2ccc(Nc3cncnc3)cc12` [Compound 35, (2S,4R)-1-(2-(3-acetyl-5-(pyrimidin-5-ylamino)-1H-indol-1-yl)acetyl)-4-fluoro-N-(2,2,6-trifluorobenzo[d][1,3]dioxol-5-yl)pyrrolidine-2-carboxamide] as the compound, how does the IC50 read?
**A.** < 1000 nM

**Q.** For `CC(=O)c1cn(CC(=O)N2C[C@H](F)C[C@H]2C(=O)NCc2ccncc2)c2ccc(Nc3cncnc3)cc12` [Compound 59, (2S,4R)-1-(2-(3-acetyl-5-(pyrimidin-5-ylamino)-1H-indol-1-yl)acetyl)-4-fluoro-N-(pyridin-4-ylmethyl)pyrrolidine-2-carboxamide], which IC50 is on record?
**A.** < 1000 nM

**Q.** With `CC(=O)c1cn(CC(=O)N2C[C@H](F)C[C@H]2C(=O)N[C@@H](CO)c2cccc(Cl)c2F)c2ccc(Nc3cncnc3)cc12` [Compound 8, (2S,4R)-1-(2-(3-acetyl-5-(pyrimidin-5-ylamino)-1H-indol-1-yl)acetyl)-N-((R)-1-(3-chloro-2-fluorophenyl)-2-hydroxyethyl)-4-fluoropyrrolidine-2-carboxamide] as the compound, how does the IC50 read?
**A.** < 1000 nM

**Q.** How did the IC50 turn out when `CC(=O)c1cn(CC(=O)N2C[C@H](F)C[C@H]2C(=O)Nc2ccc3[nH]c(C)c(C)c3c2)c2ccc(Nc3cncnc3)cc12` [Compound 38, (2S,4R)-1-(2-(3-acetyl-5-(pyrimidin-5-ylamino)-1H-indol-1-yl)acetyl)-N-(2,3-dimethyl-1H-indol-5-yl)-4-fluoropyrrolidine-2-carboxamide] was run?
**A.** < 1000 nM

**Q.** Which IC50 does the source give for `CC(=O)c1cn(CC(=O)N2C[C@H](F)C[C@H]2C(=O)Nc2cccc(O)n2)c2ccc(Nc3cncnc3)cc12` [Compound 68, (2S,4R)-1-(2-(3-acetyl-5-(pyrimidin-5-ylamino)-1H-indol-1-yl)acetyl)-4-fluoro-N-(6-hydroxypyridin-2-yl)pyrrolidine-2-carboxamide] here?
**A.** < 1000 nM

**Q.** How did the IC50 turn out when `CC(=O)c1cn(CC(=O)N2C[C@H](F)C[C@H]2C(=O)NC2CCN(c3ccn(C)n3)C2=O)c2ccc(Nc3cncnc3)cc12` (stereo partly drawn) [Compound 64, (2S,4R)-1-(2-(3-acetyl-5-(pyrimidin-5-ylamino)-1H-indol-1-yl)acetyl)-4-fluoro-N-(1-(1-methyl-1H-pyrazol-3-yl)-2-oxopyrrolidin-3-yl)pyrrolidine-2-carboxamide] was run?
**A.** < 1000 nM

**Q.** With `CC(=O)c1cn(CC(=O)N2C[C@H](F)C[C@H]2C(=O)Nc2ccccc2-c2nc3ccccc3s2)c2ccc(Nc3cncnc3)cc12` [Compound 32, (2S,4R)-1-(2-(3-acetyl-5-(pyrimidin-5-ylamino)-1H-indol-1-yl)acetyl)-N-(2-(benzo[d]thiazol-2-yl)phenyl)-4-fluoropyrrolidine-2-carboxamide] as the compound, how does the IC50 read?
**A.** > 10000 nM

**Q.** For `NC(=O)c1nn(CC(=O)N2C[C@H](F)C[C@H]2C(=O)Nc2cccc(-c3ccccc3Cl)c2F)c2ccc(Nc3cnc(C(F)(F)F)nc3)cc12` [Compound 14, 1-(2-((2S,4R)-2-(2′-chloro-2-fluorobiphenyl-3-ylcarbamoyl)-4-fluoropyrrolidin-1-yl)-2-oxoethyl)-5-(2-(trifluoromethyl)pyrimidin-5-ylamino)-1H-indazole-3-carboxamide], which IC50 is on record?
**A.** < 1000 nM

**Q.** How did the IC50 turn out when `CC(=O)c1cn(CC(=O)N2C[C@H](F)C[C@H]2C(=O)Nc2ccc3cn[nH]c3c2)c2ccc(Nc3cncnc3)cc12` [Compound 25, (2S,4R)-1-(2-(3-acetyl-5-(pyrimidin-5-ylamino)-1H-indol-1-yl)acetyl)-4-fluoro-N-(1H-indazol-6-yl)pyrrolidine-2-carboxamide] was run?
**A.** < 1000 nM

**Q.** `CC(=O)c1cn(CC(=O)N2C[C@H](F)C[C@H]2C(=O)NCc2cccc(Cl)c2F)c2cc(NS(=O)(=O)C(F)(F)F)ccc12` [Compound 2, (2S,4R)-1-(2-(3-acetyl-6-(trifluoromethylsulfon-amido)-1H-indol-1-yl)acetyl)-N-(3-chloro-2-fluorobenzyl)-4-fluoropyrrolidine-2-carboxamide] was tested. Which IC50 did it give?
**A.** < 1000 nM

**Q.** `NC(=O)c1nn(CC(=O)N2C[C@H](F)C[C@H]2C(=O)Nc2cccc(Cl)n2)c2ccc(Nc3cncnc3)cc12` [Compound 12, 1-(2-((2S,4R)-2-(6-chloropyridin-2-ylcarbamoyl)-4-fluoropyrrolidin-1-yl)-2-oxoethyl)-5-(pyrimidin-5-ylamino)-1H-indazole-3-carboxamide] was tested. Which IC50 did it give?
**A.** < 1000 nM

**Q.** With `CC(=O)c1cn(CC(=O)N2C[C@H](F)C[C@H]2C(=O)NC2CCCN(c3cc(C)ccc3F)C2=O)c2ccc(Nc3cncnc3)cc12` (stereo partly drawn) [Compound 63, (2S,4R)-1-(2-(3-acetyl-5-(pyrimidin-5-ylamino)-1H-indol-1-yl)acetyl)-4-fluoro-N-(1-(2-fluoro-5-methylphenyl)-2-oxopiperidin-3-yl)pyrrolidine-2-carboxamide] as the compound, how does the IC50 read?
**A.** < 1000 nM

**Q.** Which IC50 does the source give for `CC(=O)c1cn(CC(=O)N2C[C@H](F)C[C@H]2C(=O)NCc2cccnc2)c2ccc(Nc3cncnc3)cc12` [Compound 43, (2S,4R)-1-(2-(3-acetyl-5-(pyrimidin-5-ylamino)-1H-indol-1-yl)acetyl)-4-fluoro-N-(pyridin-3-ylmethyl)pyrrolidine-2-carboxamide] here?
**A.** < 1000 nM

**Q.** For `CC(=O)c1cn(CC(=O)N2C[C@H](F)C[C@H]2C(=O)Nc2ccc3ccccc3c2)c2ccc(Nc3cncnc3)cc12` [Compound 46, (2S,4R)-1-(2-(3-acetyl-5-(pyrimidin-5-ylamino)-1H-indol-1-yl)acetyl)-4-fluoro-N-(naphthalen-2-yl)pyrrolidine-2-carboxamide], which IC50 is on record?
**A.** < 1000 nM

**Q.** Which IC50 does the source give for `CC(=O)c1cn(CC(=O)N2C[C@H](F)C[C@H]2C(=O)Nc2cccnc2)c2ccc(Nc3cncnc3)cc12` [Compound 31, (2S,4R)-1-(2-(3-acetyl-5-(pyrimidin-5-ylamino)-1H-indol-1-yl)acetyl)-4-fluoro-N-(pyridin-3-yl)pyrrolidine-2-carboxamide] here?
**A.** < 1000 nM

**Q.** With `N#Cc1cnc(Nc2ccc3c(c2)c(C(N)=O)nn3CC(=O)N2C[C@H](F)C[C@H]2C(=O)Nc2cccc(-c3ccccc3Cl)c2F)nc1` [Compound 13, 1-(2-((2S,4R)-2-(2′-chloro-2-fluorobiphenyl-3-ylcarbamoyl)-4-fluoropyrrolidin-1-yl)-2-oxoethyl)-5-(5-cyanopyrimidin-2-ylamino)-1H-indazole-3-carboxamide] as the compound, how does the IC50 read?
**A.** < 1000 nM

**Q.** How did the IC50 turn out when `CC(=O)c1cn(CC(=O)N2C[C@H](F)C[C@H]2C(=O)Nc2cccc3c2OC(C)(C)C3)c2ccc(Nc3cncnc3)cc12` [Compound 24, (2S,4R)-1-(2-(3-acetyl-5-(pyrimidin-5-ylamino)-1H-indol-1-yl)acetyl)-N-(2,2-dimethyl-2,3-dihydrobenzofuran-7-yl)-4-fluoropyrrolidine-2-carboxamide] was run?
**A.** < 1000 nM

**Q.** With `CC(=O)c1cn(CC(=O)N2C[C@H](F)C[C@H]2C(=O)NC2CCCN(c3cnn(C)c3)C2)c2ccc(Nc3cncnc3)cc12` (stereo partly drawn) [Compound 42, (2S,4R)-1-(2-(3-acetyl-5-(pyrimidin-5-ylamino)-1H-indol-1-yl)acetyl)-4-fluoro-N-(1-(1-methyl-1H-pyrazol-4-yl)piperidin-3-yl)pyrrolidine-2-carboxamide] as the compound, how does the IC50 read?
**A.** < 1000 nM

**Q.** `CC(=O)c1cn(CC(=O)N2C[C@H](F)C[C@H]2C(=O)Nc2ccc3ncsc3c2)c2ccc(Nc3cncnc3)cc12` [Compound 56, (2S,4R)-1-(2-(3-acetyl-5-(pyrimidin-5-ylamino)-1H-indol-1-yl)acetyl)-N-(benzo[d]thiazol-6-yl)-4-fluoropyrrolidine-2-carboxamide] was tested. Which IC50 did it give?
**A.** < 1000 nM

**Q.** `CCN1Cc2ccc(NC(=O)[C@@H]3C[C@@H](F)CN3C(=O)Cn3cc(C(C)=O)c4cc(Nc5cncnc5)ccc43)cc2C1=O` [Compound 23, (2S,4R)-1-(2-(3-acetyl-5-(pyrimidin-5-ylamino)-1H-indol-1-yl)acetyl)-N-(2-ethyl-3-oxoisoindolin-5-yl)-4-fluoropyrrolidine-2-carboxamide] was tested. Which IC50 did it give?
**A.** < 1000 nM
